Source: ChEMBL document CHEMBL1122675, “Topical carbonic anhydrase inhibitors” (J Med Chem, 1984)
≈ marks a conversion by molar mass, not a printed value.

Tests used:
[1] = Compound was tested for Octanol / pH 7.2 phosphate buffer distribution coefficient (N=2-3); format: physicochemical
[2] = Solubility at a pH 7.2 phosphate buffer, 37 degrees celsius (N=6); format: physicochemical
[3] = Acid dissociation constant was determined.; format: ADME
[4] = target: Carbonic anhydrase (Homo sapiens) (UniProt P00918+P43166+P00915+P07451+P23280+O43570+Q9ULX7+Q16790+P22748+Q8N1Q1+Q9Y2D0+P35218)
Description: Compound was tested for relative in vitro carbonic anhydrase activity from human red blood cell.

[5] = Corneal permeability coefficient was determined; format: ADME
[6] = phosphate buffer, read-out: Solubility

| logD [1] | solubility ([2]; buffer) | pKa [3] | pKa ([3]; read-out: pKa) | solubility [2, 6] | CAI activity [4] | Permeability coefficient [5] | SMILES |
| --- | --- | --- | --- | --- | --- | --- | --- |
| 1.12 | 1560 µg/mL (≈ 6770 µM) | 9.26 | 7.81 |  |  |  | NS(=O)(=O)c1nc2ccc(O)cc2s1 |
| 2.1 |  |  | 7.72 | 607 µg/mL (≈ 2440 µM) | 1.23 |  | NS(=O)(=O)c1nc2ccc(Cl)cc2s1 |
| -1.02 |  |  | 2.95 | 11500 µg/mL (≈ 38300 µM) | 0.0041 |  | CCOc1ccc2nc(S(=O)(=O)NC(C)=O)sc2c1 |
| 1.33 | 1021 µg/mL (≈ 4760 µM) |  | 7.9 |  |  | 36.2 ×10⁻⁶ cm/s | NS(=O)(=O)c1nc2ccccc2s1 |
| 2.06 |  |  |  | 60 µg/mL (≈ 232 µM) |  | 43.9 ×10⁻⁶ cm/s | CCOc1ccc2nc(S(N)(=O)=O)sc2c1 [ETHOXZOLAMIDE] |
| 2.59 |  |  | 9.1 | 64 µg/mL (≈ 235 µM) | 0.0064 |  | CCOc1ccc2nc(S(=O)(=O)NC)sc2c1 |
